Laboratory results as given in patent US6914045B2, “Glycopeptide antibiotics” (Wyeth Holdings Corporation, priority 2001, dated 2005).
≈ marks a conversion by molar mass, not a printed value.

Experiments:
Experiment in all cases: in vitro antibacterial evaluation, MIC by broth dilution
Format in all cases: cell-based
Staphylococcus sp. = conditions: broth dilution, 18 hours at 35° C.; for MIC Staphylococcus aureus (GC 1131): strain GC 1131
Method in brief: (§1)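 Test organisms, which included recent clinical isolates resistant to methicillin, penicillin and/or vancomycin, were inoculated at 5×10^5 CFU/mL into Muller-Hinton II […] containing antibiotic at 64-0.06 μg/mL. Minimum inhibitory concentrations were then read as the lowest level inhibiting growth.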

Escherichia coli = test system: Escherichia coli
Method in brief: as §1

Enterococcus sp. = conditions: broth dilution, 18 hours at 35° C.; for MIC Enterococcus faecalis (ATCC 29212): strain ATCC 29212; for MIC Enterococcus faecium (GC 2243): strain GC 2243; for MIC Enterococcus faecalis (GC 4552): strain GC 4552; for MIC Enterococcus faecalis (GC 4553): strain GC 4553; for MIC Enterococcus faecalis (GC 4554): strain GC 4554; for MIC Enterococcus faecium (GC 4556): strain GC 4556; for MIC Enterococcus faecium (GC 4557): strain GC 4557; for MIC Enterococcus avium (GC 4558): strain GC 4558; for MIC Enterococcus faecalis (GC 6189): strain GC 6189
Method in brief: as §1

Streptococcus sp. = conditions: broth dilution, 18 hours at 35° C.
Method in brief: as §1

CC(c1ccccc1)C1NC(=O)CNC(=O)C(CO)NC(=O)C(C(O)C2CNC(=N)N2C2OC(CO)C(O)C(O)C2O)NC(=O)C(C(O)C2CNC(=N)N2)NC(=O)C(Cc2ccc(OC3OC(CO)C(OC4OC5COC(c6ccc(S(C)(=O)=O)cc6)OC5C(O)C4O)C(O)C3O)cc2)NC1=O (centres unmarked) [Example 157]
MIC Staphylococcus aureus (GC 1131) (Staphylococcus sp.; inoculum 5×10^5 CFU/mL): 32 µg/mL (≈ 21.9 µM) | MIC Staphylococcus aureus (ATCC 29213) (Staphylococcus sp.; strain ATCC 29213): 32 µg/mL (≈ 21.9 µM) | MIC Staphylococcus aureus (GC 1131) (Staphylococcus sp.): 32 µg/mL (≈ 21.9 µM) | MIC Staphylococcus aureus (GC 3051) (Staphylococcus sp.; strain GC 3051): 16 µg/mL (≈ 10.9 µM) | MIC Staphylococcus aureus (GC 3053) (Staphylococcus sp.; strain GC 3053): 32 µg/mL (≈ 21.9 µM) | MIC Staphylococcus aureus (GC 4541) (Staphylococcus sp.; strain GC 4541): 16 µg/mL (≈ 10.9 µM) | MIC Staphylococcus aureus (GC 4542) (Staphylococcus sp.; strain GC 4542): 32 µg/mL (≈ 21.9 µM) | MIC Staphylococcus aureus-SMITH (GC 4543) (Staphylococcus sp.; strain GC 4543): 16 µg/mL (≈ 10.9 µM) | MIC Staphylococcus aureus (GC 4544) (Staphylococcus sp.; strain GC 4544): 32 µg/mL (≈ 21.9 µM) | MIC Staphylococcus aureus (GC 4545) (Staphylococcus sp.; strain GC 4545): 16 µg/mL (≈ 10.9 µM) | MIC Staphylococcus haemolyticus (GC 4546) (Staphylococcus sp.; strain GC 4546): 16 µg/mL (≈ 10.9 µM) | MIC Coagulase Negative Staphylococcus (GC 4547) (Staphylococcus sp.; strain GC 4547): 16 µg/mL (≈ 10.9 µM) | MIC Coagulase Negative Staphylococcus (GC 4548) (Staphylococcus sp.; strain GC 4548): 8 µg/mL (≈ 5.47 µM) | MIC Coagulase Negative Staphylococcus (GC 4549) (Staphylococcus sp.; strain GC 4549): 8 µg/mL (≈ 5.47 µM) | MIC Coagulase Negative Staphylococcus (GC 4551) (Staphylococcus sp.; strain GC 4551): 32 µg/mL (≈ 21.9 µM) | MIC Coagulase Negative Staphylococcus (GC 6257) (Staphylococcus sp.; strain GC 6257): 4 µg/mL (≈ 2.74 µM) | MIC Staphylococcus aureus-SMITH (GC 4543) (Staphylococcus sp.; strain SMITH GC 4543): 16 µg/mL (≈ 10.9 µM) | MIC Escherichia coli (ATCC 25922) (Escherichia coli; strain ATCC 25922, 18 hours at 35° C.): >64 µg/mL | MIC Escherichia coli (GC 4559) (Escherichia coli; strain GC 4559, 18 hours at 35° C.): >64 µg/mL | MIC Enterococcus faecalis (GC 2242) (Enterococcus sp.; Enterococcus faecalis (GC 2242)): 64 µg/mL (≈ 43.8 µM) | MIC Enterococcus faecalis (GC 2691) (Enterococcus sp.; Enterococcus faecalis (GC 2691)): >64 µg/mL | MIC Enterococcus faecalis (GC 3059) (Enterococcus sp.; Enterococcus faecalis (GC 3059)): >64 µg/mL | MIC Enterococcus faecalis (ATCC 29212) (Enterococcus sp.; inoculum 5×10^5 CFU/mL): >64 µg/mL | MIC Enterococcus faecium (GC 2243) (Enterococcus sp.; inoculum 5×10^5 CFU/mL): 64 µg/mL (≈ 43.8 µM) | MIC Enterococcus faecalis (GC 4552) (Enterococcus sp.; inoculum 5×10^5 CFU/mL): >64 µg/mL | MIC Enterococcus faecalis (GC 4553) (Enterococcus sp.; inoculum 5×10^5 CFU/mL): >64 µg/mL | MIC Enterococcus faecalis (GC 4554) (Enterococcus sp.; inoculum 5×10^5 CFU/mL): >64 µg/mL | MIC Enterococcus faecium (GC 4556) (Enterococcus sp.; inoculum 5×10^5 CFU/mL): >64 µg/mL | MIC Enterococcus faecium (GC 4557) (Enterococcus sp.; inoculum 5×10^5 CFU/mL): 8 µg/mL (≈ 5.47 µM) | MIC Enterococcus avium (GC 4558) (Enterococcus sp.; inoculum 5×10^5 CFU/mL): 64 µg/mL (≈ 43.8 µM) | MIC Enterococcus faecalis (GC 6189) (Enterococcus sp.; inoculum 5×10^5 CFU/mL): >64 µg/mL | MIC Enterococcus faecalis (ATCC 29212) (Enterococcus sp.): >64 µg/mL | MIC Enterococcus faecalis (GC 2242) (Enterococcus sp.; strain GC 2242): 64 µg/mL (≈ 43.8 µM) | MIC Enterococcus faecium (GC 2243) (Enterococcus sp.): 64 µg/mL (≈ 43.8 µM) | MIC Enterococcus faecalis (GC 2691) (Enterococcus sp.; strain GC 2691): >64 µg/mL | MIC Enterococcus faecalis (GC 3059) (Enterococcus sp.; strain GC 3059): >64 µg/mL | MIC Enterococcus faecalis (GC 4552) (Enterococcus sp.): >64 µg/mL | MIC Enterococcus faecalis (GC 4553) (Enterococcus sp.): >64 µg/mL | MIC Enterococcus faecalis (GC 4554) (Enterococcus sp.): >64 µg/mL | MIC Enterococcus faecium (GC 4556) (Enterococcus sp.): >64 µg/mL | MIC Enterococcus faecium (GC 4557) (Enterococcus sp.): 8 µg/mL (≈ 5.47 µM) | MIC Enterococcus avium (GC 4558) (Enterococcus sp.): 64 µg/mL (≈ 43.8 µM) | MIC Enterococcus faecalis (GC 6189) (Enterococcus sp.): >64 µg/mL | MIC Streptococcus agalactiae (GC 4564) (Streptococcus sp.; Streptococcus agalactiae (GC 4564)): 16 µg/mL (≈ 10.9 µM) | MIC Streptococcus pneumoniae (ATCC 6301) (Streptococcus sp.; Streptococcus pneumoniae (ATCC 6301)): 4 µg/mL (≈ 2.74 µM) | MIC Streptococcus pneumoniae (GC 1894) (Streptococcus sp.; Streptococcus pneumoniae (GC 1894)): 4 µg/mL (≈ 2.74 µM) | MIC Streptococcus pneumoniae (GC 4565) (Streptococcus sp.; Streptococcus pneumoniae (GC 4565)): 4 µg/mL (≈ 2.74 µM) | MIC Streptococcus pyogenes (GC 4563) (Streptococcus sp.; Streptococcus pyogenes (GC 4563)): 8 µg/mL (≈ 5.47 µM) | MIC Streptococcus pneumoniae (ATCC 6301) (Streptococcus sp.; strain ATCC 6301): 4 µg/mL (≈ 2.74 µM) | MIC Streptococcus pneumoniae (GC 1894) (Streptococcus sp.; strain GC 1894): 4 µg/mL (≈ 2.74 µM) | MIC Streptococcus pyogenes (GC 4563) (Streptococcus sp.; strain GC 4563): 8 µg/mL (≈ 5.47 µM) | MIC Streptococcus agalactiae (GC 4564) (Streptococcus sp.; strain GC 4564): 16 µg/mL (≈ 10.9 µM) | MIC Streptococcus pneumoniae (GC 4565) (Streptococcus sp.; strain GC 4565): 4 µg/mL (≈ 2.74 µM)
